US9096585B2 (Icahn School of Medicine at Mount Sinai, priority 2010, dated 2015)
“Also recorded” adds a separate entry of the source. Read-outs that look alike come from different tables or passages of the source.

How the values were obtained:
A549 cells [1] = conditions: human, 24 h
A549 cells [2] = experiment: Cell viability (cytotoxicity) in A549 cells; conditions: A549
Sindbis virus = Sindbis virus replication in A549 cells; assay type: cell-based; conditions: 10 μM A3 or less
influenza A/WSN/33 virus = experiment: Plaque-reduction assays with influenza A/WSN/33 virus in cell lines of different species, with or without pyrimidine supplements
[3] = system: influenza viral proteins (NP, M1, and M2); assay type: cell-based, influenza A/WSN/33 virus; conditions: A549; A/WSN/33; in the presence of A3
[4] = system: influenza virus polymerase (PB1, PB2, PA, NP); assay type: cell-based, influenza A/WSN/33 virus; conditions: for inhibition of viral RNA polymerase activity: mini-genome reporter construct
[5] = system: cellular gene expression (Renilla luciferase)
influenza virus [6] = assay type: cell-based; conditions: primary screen
Vaccinia Virus (NYVAC) = assay type: cell-based; conditions: 10 μM A3 or less
Sendai Virus 52 = experiment: Sendai virus replication in A549 cells; assay type: cell-based; conditions: A3 10 μM, 24 h
[7] = system: influenza A/PR/8/34 virus v-, c-, and mRNA (NA segment); conditions: concentration of 2 μM
in vitro [8] = conditions: mouse
in vitro [9] = conditions: human
cellular 5S rRNA = conditions: concentration of 2 μM
[10] = system: human adenovirus 5 (hAd5); assay type: cell-based; conditions: 10 μM A3 or less
Hepatitis C virus = assay type: cell-based; conditions: 10 μM A3 or less
[11] = Cell viability (cytotoxicity) in A549 cells; conditions: human, A549 cells
[12] = system: Vesicular Stomatitis virus; assay type: cell-based; conditions: A549
influenza virus [13] = experiment: Viral entry assay, influenza virus; assay type: cell-based; conditions: viral entry assays
[14] = target: Human dihydroorotate dehydrogenase (DHODH) (Homo sapiens, UniProt Q02127); experiment: In vitro colorimetric DHODH assay (DCIP reduction); conditions: final concentration of 10 μM; 60 mins
Chain of Human dihydroorotate dehydrogenase (DHODH) (Q02127 whole entry): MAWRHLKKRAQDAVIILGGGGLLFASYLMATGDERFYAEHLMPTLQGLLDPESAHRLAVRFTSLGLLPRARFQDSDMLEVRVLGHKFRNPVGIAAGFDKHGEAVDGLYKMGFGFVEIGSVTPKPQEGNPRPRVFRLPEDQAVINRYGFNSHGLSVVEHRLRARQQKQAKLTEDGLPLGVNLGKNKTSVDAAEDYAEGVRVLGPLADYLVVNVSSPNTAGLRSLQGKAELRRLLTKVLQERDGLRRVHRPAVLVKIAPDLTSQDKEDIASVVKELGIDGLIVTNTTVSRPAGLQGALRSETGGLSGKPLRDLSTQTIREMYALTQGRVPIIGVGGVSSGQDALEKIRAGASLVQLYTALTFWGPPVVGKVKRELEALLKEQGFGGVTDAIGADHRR

HIV-1 (NL4-3) = experiment: microbe, parasite or virus in culture; assay type: cell-based
in vitro [15] = conditions: human; remark: listed apart in the source
Newcastle Disease virus = assay type: cell-based; conditions: concentration of 11.2 μM; NDV/B1; A549
retrovirus MLV = experiment: Viral entry assay, retrovirus MLV; assay type: cell-based; conditions: viral entry assays
VSV = assay type: cell-based, Vesicular Stomatitis virus; conditions: viral entry assays
[16] = read-out: CC50 (A549), 24 hour period, Table 3

## CCN(CC)S(=O)(=O)c1ccc(-c2nnc(SCC(=O)N3CCCC3)o2)cc1 [Compound A3-1, N,N-diethyl-4-(5-(2-oxo-2-(pyrrolidin-1-yl)ethylthio)-1,3,4-oxadiazol-2-yl)benzenesulfonamide]
A549 cells [1]
  CC10 (A549): 17.3 µM

## CCN(CC)C(=O)CSc1nnc(-c2ccc3[nH]c(C)c(C)c3c2)o1 [Compound A3-2, 2-(5-(2,3-dimethyl-1H-indol-5-yl)-1,3,4-oxadiazol-2-ylthio)-N,N-diethylacetamide]
A549 cells [1]
  CC10 (A549): 29 µM

## Cc1[nH]c2ccc(-c3nnc(SCC(=O)N4CCc5ccccc54)o3)cc2c1C [Compound A3-3, 2-(5-(2,3-dimethyl-1H-indol-5-yl)-1,3,4-oxadiazol-2-ylthio)-1-(indolin-1-yl)ethanone]
A549 cells [1]
  CC10 (A549): 8.5 µM
A549 cells [2]; [16]
  CC50: 65 µM

## Cc1[nH]c2ccc(-c3nnc(SCC(=O)N(C(C)C)C(C)C)o3)cc2c1C [Compound A3-4, 2-(5-(2,3-dimethyl-1H-indol-5-yl)-1,3,4-oxadiazol-2-ylthio)-N,N-diisopropylacetamide]
A549 cells [1]
  CC10 (A549): 10.7 µM

## Cc1[nH]c2ccc(-c3nnc(SCC(=O)N4CCOCC4)o3)cc2c1C [Compound A3-5, 2-(5-(2,3-dimethyl-1H-indol-5-yl)-1,3,4-oxadiazol-2-ylthio)-1-morpholinoethanone]
A549 cells [1]
  CC10 (A549): 10.2 µM

## Cc1[nH]c2ccc(-c3nnc(SCC(=O)N4CCCCCC4)o3)cc2c1C [Compound A3-6, 1-(azepan-1-yl)-2-(5-(2,3-dimethyl-1H-indol-5-yl)-1,3,4-oxadiazol-2-ylthio)ethanone]
A549 cells [1]
  CC10 (A549): 18.2 µM

## O=C(CSc1nnc(-c2cc3ccccc3[nH]2)o1)N1CCCC1 [Compound A3-7, 2-(5-(1H-indol-2-yl)-1,3,4-oxadiazol-2-ylthio)-1-(pyrrolidin-1-yl)ethanone]
A549 cells [1]
  CC10 (A549): 15.2 µM

## COc1ccc(-c2nnc(SCC(=O)N3CCCC3)o2)cc1 [Compound A3-8, 2-(5-(4-methoxyphenyl)-1,3,4-oxadiazol-2-ylthio)-1-(pyrrolidin-1-yl)ethanone]
A549 cells [1]
  CC10 (A549): 11.8 µM

## O=C(CSc1nnc(-c2cc3ccccc3o2)o1)N1CCCC1 [Compound A3-9, 2-(5-(benzofuran-2-yl)-1,3,4-oxadiazol-2-ylthio)-1-(pyrrolidin-1-yl)ethanone]
A549 cells [1]
  CC10 (A549): 10.9 µM

## O=C(CSc1nnc(-c2cccnc2)o1)N1CCCC1 [Compound A3-11, 2-(5-(pyridin-3-yl)-1,3,4-oxadiazol-2-ylthio)-1-(pyrrolidin-1-yl)ethanone]
A549 cells [1]
  CC10 (A549): 32.6 µM

## O=C(CSc1nnc(-c2ccncc2)o1)N1CCCC1 [Compound A3-12, 2-(5-(pyridin-4-yl)-1,3,4-oxadiazol-2-ylthio)-1-(pyrrolidin-1-yl)ethanone]
A549 cells [1]
  CC10 (A549): 11.5 µM

## Cc1[nH]c2ccc(-c3nnc(SCC(=O)N4CCCC4)o3)cc2c1C [Compound A3]
Sindbis virus
  inhibition of Sindbis virus: 2 logs
Influenza A/WSN/33 virus
  inhibition of viral replication: strong inhibition; also recorded: complete inhibition
Influenza A/WSN/33 virus; baby hamster kidney (BHK) cells and pig kidney (PK-15) cells, A3 10 μM
  inhibition of viral replication: partially inhibited
Influenza A/WSN/33 virus; both A549 and MDCK cells
  effect of orotic acid on the inhibition by A3: reverse the inhibition
Influenza A/WSN/33 virus; chicken fibroblast (DF-1) cells, A3 10 μM
  effect on viral replication: no effect
[3]
  levels of viral proteins: reduced levels of viral proteins
[4]; compared with the DMSO control, A3 at its CC10
  inhibition of influenza virus polymerase function: 98%
[4]; at 10 μM
  inhibition of viral RNA polymerase activity: up to 99%
[4]; same degree of inhibition by 2 μM A3 as with 100 μM ribavirin
  potency relative to ribavirin: 50 times
[5]; A3 at its CC10
  cellular gene expression as monitored by Renilla luciferase activity: without affecting cellular gene expression
[5]; all A3 concentrations (0.4-30 μM)
  overall host cell replication machinery (renilla luciferase control plasmid expression): not affected
Influenza virus [6]
  luminescence signal of influenza virus inducible firefly luciferase reporter: no luminescence detectable
Vaccinia Virus (NYVAC)
  sensitivity of vaccinia virus: sensitive
Sendai Virus 52
  inhibition of Sendai virus (SV52): 3 logs
[7]
  production of all three viral RNA species (v-, c-, and mRNA): fully inhibit
In vitro [8]
  CC50: > 100 µM
In vitro [9]
  CC50: > 100 µM
Cellular 5S rRNA
  levels of cellular 5S rRNA: without decreasing levels
A549 cells [1]
  CC10 (A549): 38 µM
[10]
  sensitivity of adenovirus: sensitive
Hepatitis C virus
  inhibition of hepatitis C virus: 2 logs
[11]
  CC50 at 24 h: 268 µM
[12]; 10 μM A3 or less
  titer of vesicular stomatitis virus decreased: 5 logs
Influenza virus [13]
  viral entry of influenza virus: did not inhibit viral entry
[14]
  DHODH activity in vitro: Inhibits DHODH Activity
HIV-1 (NL4-3); 10 μM A3 or less
  sensitivity of HIV-1: sensitive
HIV-1 (NL4-3); Human immunodeficiency virus 1, NL43, TZM-bl, 48 h, read-out: IC50 against HIV-1 (NL4-3)
  IC50: 0.205 µM
HIV-1 (NL4-3); time-of-addition, TZM-bl, HIV-1 MOI=0.1, A3 at 1 μM
  time of addition at which compound remains active: ≤ 12 h after infection

## CN(Cc1ccccc1)c1nc(-c2ccc([N+](=O)[O-])cc2)cs1 [Compound A35-1]
A549 cells [1]
  CC10 (A549): 10.8 µM

## CN(c1nc(-c2ccccc2)cs1)C1CCS(=O)(=O)C1 (stereo not shown) [Compound A35-2]
A549 cells [1]
  CC10 (A549): 12.2 µM

## Nc1nc(-c2ccc(Cl)cc2)cs1 [Compound A35-3]
A549 cells [1]
  CC10 (A549): 11.4 µM

## CN(c1ccc(O)cc1)c1nc(-c2ccc(Cl)cc2)cs1 [Compound A35-4]
A549 cells [1]
  CC10 (A549): 6 µM
A549 cells [2]; [16]
  CC50: 30 µM

## CN(C)c1nc(-c2ccc(Br)cc2)cs1 [Compound A35-5]
A549 cells [1]
  CC10 (A549): 17.8 µM
In vitro [15]
  CC50 at 24 h: 242 µM

## CN(c1nc(-c2ccc(Br)cc2)cs1)C1CCS(=O)(=O)C1 (stereo not shown) [Compound A35]
Newcastle Disease virus
  inhibition of NDV: less significant inhibition
A549 cells [1]
  CC10 (A549): 11.2 µM
In vitro [15]
  CC50 at 24 h: 110 µM
[12]; concentration of 11.2 μM
  inhibition of VSV: less significant inhibition
Influenza virus [13]
  viral entry of influenza virus: did not affect the entry step

## COc1cc2c(O)c3c(c(-c4ccc5c(c4)OCO5)c2cc1OC)C(=O)OC3 [Compound C2]
Retrovirus MLV
  entry of the retrovirus MLV: unaffected
A549 cells [2]
  CC50: 131 µM
VSV
  entry of VSV: inhibited
Influenza virus [13]
  viral entry of influenza virus: inhibited

## Cc1oncc1C(=O)Nc1ccc(C(F)(F)F)cc1 [Leflunomide, reference compound]
Influenza A/WSN/33 virus; A549 and MDCK cells, concentration of 10 μM
  effect on influenza virus replication: No inhibition

## NC(=O)c1ncn([C@@H]2O[C@H](CO)[C@@H](O)[C@H]2O)n1 [ribavirin, reference compound]
[4]; at 100 μM
  inhibition of viral RNA polymerase activity: 90%
